We go through two substances from patent US20030181436A1, “Treatment for AIDS, HIV, and other related diseases and compounds for use therewith” (priority 2001, published 2003).

Type in all cases: cell-based
One series deals with HIV. The series can be described thus: PBMC time of addition assay. The text has this: FIGS. 18 and 19 show the results of the time of addition assay with the K and Z compound. In time of addition assays the timed addition of compounds after initial infection allows the identification of specific stages of virus replication. This is seen with the positive control compound AZT. AZT is a reverse transcriptase inhibitor. […] Thus it has an antiviral target that is occurring after completion of reverse transcription. […] In general since this time of addition uses multiple rounds of infection in the PBMCs versus a single round in cell lines systems, lower concentrations of compound will often shift the curve to the left. This is seen in FIG. 18.

Series [1] concerns HIV-1 attachment to HeLa CD4 LTR B-gal cells. The series can be described thus: Inhibition of attachment assay. The settings on record: for IC50: attachment assay. The protocol:
The attachment assay was performed with the HeLa CD4 LTR B-gal cells available from the AIDS Research and Reference Reagent Repository. […] HeLa CD4 LTR B-gal cells express cell surface CD4 and contain an LTR B-galactosidase reporter construct. Upon infection either the Tat protein incorporated into the virion or new Tat produced following virus integration and transcription trans-activate the LTR B-gal reporter, leading to expression of the B-galactosidase enzyme. HeLa CD4 LTR B-gal cells are routinely cultured with the required selection antibiotics and scrended for mycoplasma contamination. Twenty-four h prior to initiation of the assay cells were trypsinized, counted and 1×10^4 cells placed in a 0.2 cm well in media without selection antibiotics. Media was removed and compound media placed on the cells and incubated for 15 to 30 min at 37° C. A known titer of virus was then added to the wells and the incubation continued for 1 h. At the end of the incubation the wells were washed 6 times with media and the culture continued for 48 h. At 48 h the wells were washed one time with PBS and B-galactosidase enzyme expression determined by chemiluminescence per manufacturers instructions (Tropix Gal-screen TM, Tropix, Bedford, Mass.). Compound toxicity was monitored on sister plates using MTS dye reduction. (See Tables 14 through 16 and FIGS. 21 and 22).

Series [2] concerns SK-1 strain of HIV in CEM-SS cells. Put plainly: Chronically infected CEM/SK-1 cell assay, RT values. The method, then: Reverse transcriptase activity was measured in cell-free supernatants. Tritiated thymidine triphosphate (NEN) (TTP) was resuspended in distilled H2O at 5 Ci/mL. Poly rA and oligo dT were prepared as a stock solution which was kept at −20° C. The RT reaction buffer was prepared fresh on a daily basis and consists of 125 μL 1.0 M EGTA, 125 μL dH2O, 110 μL 10% SDS, 50 μL 1.0 M Tris (pH 7.4), 50 μL, 1.0 M DTT, and 40 μL 1.0 M MgCl2. These three solutions were mixed together in a ratio of 2 parts TTP, 1 part poly rA:oligo dT, and 1 part reaction buffer. Ten microliters of this reaction mixture was placed in a round bottom microtiter plate and 15 μL of virus containing supernatant was added and mixed. The plate was incubated at 37° C. in a water bath with a solid support to prevent submersion of the plate and incubated for 60 minutes. Following reaction, the reaction volume was spotted onto pieces of DE81 paper, washed 5 times for 5 minutes each in a 5% sodium phosphate buffer, 2 times for 1 minute each in distilled water, 2 times for 1 minute each in 70% ethanol, and then dried. Opti-Fluor O was added to each sample and incorporated radioactivity was quantitated utilizing a Wallac 1450 Microbetaplus liquid scintillation counter.
The chronically infected CEM cells were cultured and the assay performed in RPMI 1640 supplemental with 10% Fetal Bovine Serum (heat inactivated), 2 mM L-glutamine, 100 U/mL penicillin, […] and 10 ug/mL gentamycin. On day 3 cell-free supernatants were collected and cell viability measured by MTS dye reduction. (See Table 13 and FIG. 20).

Series [3] deals with CEM-SS cells chronically infected with SK-1. The series can be described thus: Chronically infected CEM/SK-1 cell assay, cell viability by MTS. The method, then: At assay termination the assay plates were stained with the soluble tetrazolium-based dye MTS (CellTiter® Reagent, Promega) to determined cell viability and quantify compound toxicity. […] At termination of the assay 20 μL of MTS reagent was added per well. The wells were incubated for 4 h at 37° C., 5% CO2. Adhesive plate scalers were used in place of the lids, the sealed plate was inverted several times to mix the soluble formazan product and the plate was read spectrophotometrically at 490 nm with a 650 nm reference wavelength on a Molecular Devices Vmax plate reader.
The chronically infected CEM cells were cultured and the assay performed in RPMI 1640 supplemental with 10% Fetal Bovine Serum (heat inactivated), 2 mM L-glutamine, 100 U/mL penicillin, […] and 10 ug/mL gentamycin. On day 3 cell-free supernatants were collected and cell viability measured by MTS dye reduction.

On to Potassium Iodiscorbate [Compound K], for which the “suppression of virus replication” value with HIV (6.4 μg/ml, added at 4 h) is “no inhibition”; with HIV (6.4 μg/ml, added at 9 h), 71%; in the series on HIV (64 μg/ml, added 49 h post infection) it was 75%; in the series with HIV (64 μg/ml, added at 4 h) it was 35%; with HIV (64 μg/ml, added at 9 h) it was 87%.
Zinc Iodiscorbate [Compound Z]: the “efficacy in HeLa CD4 LTR β-gal attachment assay” value in series [1] was “inactive”. Further, the “% VC” value is recorded as 90.2% in series [1] (0.32 μG/Ml); 94.8% in series [1] (1 μG/Ml); 74.5% in series [1] (3.2 μG/Ml); 62.4% in series [1] (10 μG/Ml); 54.4% in series [1] (32 μG/Ml); 66.8% in series [1] (100 μG/Ml). In addition, the “% VC” value amounted to 95.1% in series [2] (0.625 μG/Ml); 96.8% in series [2] (2 μG/Ml); 16.8% in series [2] (6.25 μG/Ml); 1.2% in series [2] (20 μG/Ml); 1.0% in series [2] (62.5 μG/Ml); 0.5% in series [2] (200 μG/Ml). Also, the IC50 in series [1] is more than 100 µg/mL; in series [1] (listed as COMPOUND Z) it was “IC50 (μG/mL) = >100 μg/mL”; in series [2] (CEMSK1 chronic infection) it was “IC50 (μG/Ml) = 4.49”. Also, the “RT VALUES (cpm) MEAN” value in series [2] (0.625 μG/Ml) came to 9997.0 cpm; in series [2] (2 μG/Ml), 10178.7 cpm; in series [2] (6.25 μG/Ml) it was 1761.0 cpm; in series [2] (20 μG/Ml), 128.0 cpm; in series [2] (62.5 μG/Ml), 104.0 cpm; in series [2] (200 μG/Ml) it was 48.0 cpm. Further, the “TOXICITY VALUES (MTS) MEAN” value worked out at 1.757 O. D in series [3] (0.625 μG/Ml); 1.655 O. D in series [3] (2 μG/Ml); 0.631 O. D in series [3] (6.25 μG/Ml); 0.553 O. D in series [3] (20 μG/Ml); 0.301 O. D in series [3] (62.5 μG/Ml); 0.011 O. D in series [3] (200 μG/Ml). Also, the “% CC” value in series [3] (6.25 μG/Ml) was 35.8%; in series [3] (20 μG/Ml) it was 31.4%; in series [3] (62.5 μG/Ml), 17.1%; in series [3] (200 μG/Ml) it was 0.6%. Further, the TC50 entry in series [3] (CEMSK1 chronic infection) is “ITC50 (ug/ml) = 5.22”.
